According to paper PMC6047530 (Journal of medicinal chemistry, 2018):
Entries after “also recorded” stand apart in the source; their conditions may differ.

Legend:
[1] = system: OVCAR8 (BRCA1-methylated) cell line; assay: Cytotoxicity screen in OVCAR8 cells at 10 μM; type: cell-based
MEF PARP-1 KO−/− cells = assay: Cell viability assay in MEF PARP-1 KO−/− cells; type: cell-based, mouse; conditions: for EC50: Mus musculus, read-out: PARP-1−/− EC50; for cell death, in words: MEF PARP-1 KO−/−
PARP-1 = PARP-1 (Homo sapiens, UniProt P09874); assay: PARP-1 radioligand binding; conditions: 10c vs 10a; 15b vs 15a
MEF WT cells = assay: Cell viability assay in MEF WT cells; type: cell-based, mouse; conditions: for cell death, in words: MEF WT; for EC50: Mus musculus, read-out: WT EC50
MEF PARP-2 KO−/− cells = assay: Cell viability assay in MEF PARP-2 KO−/− cells; type: cell-based; conditions: Mus musculus, read-out: PARP-2−/− EC50
UWB1.289 cells = assay: Cell viability assay in UWB1.289; type: cell-based; conditions: UWB1.289 isogenic cell lines
[2] = system: poly(ADP-ribose) (PAR), biochemical product of PARP-1; assay: Western blot analysis of PAR expression in OVCAR8 cells; type: cell-based; conditions: OVCAR8 cells treated 6 h
[3] = system: γH2AX foci in OVCAR8 cells; assay: Immunofluorescent cell microscopy of γH2AX foci; type: cell-based; conditions: 0.01-10 μM, 24 hrs
other PARPs = assay: PARPs enzyme inhibition panel at 10 μM; type: biochemical

Chain of PARP-1 (P09874 whole entry): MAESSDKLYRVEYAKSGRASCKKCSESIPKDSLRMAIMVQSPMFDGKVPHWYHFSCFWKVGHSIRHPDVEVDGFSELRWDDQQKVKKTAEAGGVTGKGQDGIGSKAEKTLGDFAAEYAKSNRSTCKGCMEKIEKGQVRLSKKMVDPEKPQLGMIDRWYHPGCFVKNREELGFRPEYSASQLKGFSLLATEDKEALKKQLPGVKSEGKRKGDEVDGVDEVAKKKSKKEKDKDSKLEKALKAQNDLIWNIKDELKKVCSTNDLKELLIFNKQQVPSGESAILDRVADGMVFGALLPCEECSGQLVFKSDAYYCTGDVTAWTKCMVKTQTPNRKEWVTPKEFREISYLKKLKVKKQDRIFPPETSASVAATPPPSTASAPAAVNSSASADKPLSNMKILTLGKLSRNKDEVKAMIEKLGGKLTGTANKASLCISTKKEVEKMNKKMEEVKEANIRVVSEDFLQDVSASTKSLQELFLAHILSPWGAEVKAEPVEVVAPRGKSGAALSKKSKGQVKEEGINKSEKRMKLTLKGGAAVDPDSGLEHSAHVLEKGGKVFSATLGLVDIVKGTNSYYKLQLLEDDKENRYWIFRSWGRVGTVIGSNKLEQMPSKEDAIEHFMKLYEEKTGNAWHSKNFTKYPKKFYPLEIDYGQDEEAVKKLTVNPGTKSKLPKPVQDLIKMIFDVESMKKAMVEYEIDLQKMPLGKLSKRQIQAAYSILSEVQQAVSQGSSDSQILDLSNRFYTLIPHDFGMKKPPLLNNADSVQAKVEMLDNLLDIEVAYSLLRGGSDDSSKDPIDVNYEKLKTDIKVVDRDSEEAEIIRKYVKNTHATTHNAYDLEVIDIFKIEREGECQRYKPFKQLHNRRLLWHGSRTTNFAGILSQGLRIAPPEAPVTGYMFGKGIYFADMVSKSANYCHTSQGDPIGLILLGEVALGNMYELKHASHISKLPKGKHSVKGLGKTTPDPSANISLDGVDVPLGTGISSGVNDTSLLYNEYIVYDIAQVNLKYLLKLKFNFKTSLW

Structure (SMILES) | EC50 (MEF PARP-1 KO−/− cells) | EC50 (MEF WT cells) | other results
O=C(c1cc(Cc2n[nH]c(=O)c3ccccc23)ccc1F)N1CC2(CCC2)C1 [Compound 10a, 4-(4-Fluoro-3-(2-azaspiro[3.3]heptane-2-carbonyl)benzyl)phthalazin-1(2H)-one] | > 100 µM | – | cytotoxicity / anti-proliferative activity (in words) [1]: poor cytotoxic properties
O=C(c1cc(Cc2n[nH]c(=O)c3ccccc23)ccc1F)N1CC2(COC2)C1 [Compound 10b, 4-(4-Fluoro-3-(2-oxa-6-azaspiro[3.3]heptane-6-carbonyl)benzyl)phthalazin-1(2H)-one] | > 100 µM | – | –
CC(C)(C)OC(=O)N1CC2(C1)CN(C(=O)c1cc(Cc3n[nH]c(=O)c4ccccc34)ccc1F)C2 [Compound 10c, Tert-butyl 6-(2-fluoro-5-((4-oxo-3,4-dihydrophthalazin-1-yl)methyl)benzoyl)-2,6-diazaspiro[3.3]heptane-2-carboxylate] | > 100 µM | – | fold lower PARP-1 affinity compared to methylene congener (PARP-1): ~ 16 fold
O=C(c1cc(Cc2n[nH]c(=O)c3ccccc23)ccc1F)N1CC2(CNC2)C1 [Compound 10d, 4-(4-Fluoro-3-(2,6-diazaspiro[3.3]heptane-2-carbonyl)benzyl)phthalazin-1(2H)-one] | > 100 µM | > 100 µM | cell death, in words (MEF WT cells): no cell death was observed; cell death, in words (MEF PARP-1 KO−/− cells): no cell death was observed; EC50 (MEF PARP-2 KO−/− cells): > 100 µM
O=C(c1cc(Cc2n[nH]c(=O)c3ccccc23)ccc1F)N1CC2(C1)CN(C(=O)C1CC1)C2 [Compound 10e, 4-(3-(6-(Cyclopropanecarbonyl)-2,6-diazaspiro[3.3]heptane-2-carbonyl)-4-fluorobenzyl)phthalazin-1(2H)-one] | > 100 µM | > 100 µM | cell death, in words (MEF WT cells): no measurable cell death; cell death, in words (MEF PARP-1 KO−/− cells): no measurable cell death; cytotoxic concentration (EC50) relative to olaparib (UWB1.289 cells): approximately 7 fold; inhibition of PARP activity (PAR synthesis), in words [2]: inhibit PARP activity in a manner similar to olaparib; DNA damage (γ-H2AX foci), in words [3]: did not induce DNA damage at similar drug concentrations as olaparib; also recorded: unable to induce DNA damage at concentrations as high as 10 μM; off-target enzymatic inhibition of other PARPs, in words (other PARPs): minimal off-target activity; also recorded: less enzymatic inhibition with most other PARPs
O=C(c1cc(Cc2n[nH]c(=O)c3ccccc23)ccc1F)N1CCC12CCC2 [Compound 11a, 4-(4-Fluoro-3-(1-azaspiro[3.3]heptane-1-carbonyl)benzyl)phthalazin-1(2H)-one] | > 100 µM | – | –
CC(C)(C)OC(=O)N1CC2(CCN2C(=O)c2cc(Cc3n[nH]c(=O)c4ccccc34)ccc2F)C1 [Compound 11b, Tert-butyl 1-(2-fluoro-5-((4-oxo-3,4-dihydrophthalazin-1-yl)methyl)benzoyl)-1,6-diazaspiro[3.3]heptane-6-carboxylate] | > 100 µM | – | –
O=C(c1cc(Cc2n[nH]c(=O)c3ccccc23)ccc1F)N1CCC12CNC2 [Compound 11c, 4-(4-Fluoro-3-(1,6-diazaspiro[3.3]heptane-1-carbonyl)benzyl)phthalazin-1(2H)-one] | > 100 µM | > 100 µM | EC50 (MEF PARP-2 KO−/− cells): > 100 µM
O=C(C1CC1)N1CC2(CCN2C(=O)c2cc(Cc3n[nH]c(=O)c4ccccc34)ccc2F)C1 [Compound 11d, 4-(3-(6-(Cyclopropanecarbonyl)-1,6-diazaspiro[3.3]heptane-1-carbonyl)-4-fluorobenzyl)phthalazin-1(2H)-one] | > 100 µM | – | –
O=C(c1cc(Cc2n[nH]c(=O)c3ccccc23)ccc1F)N1CC2(CCCCC2)C1 [Compound 12a, 4-(4-Fluoro-3-(2-azaspiro[3.5]nonane-2-carbonyl)benzyl)phthalazin-1(2H)-one] | – | – | cytotoxicity / anti-proliferative activity (in words) [1]: poor cytotoxic properties
O=C(c1cc(Cc2n[nH]c(=O)c3ccccc23)ccc1F)N1CC2(CCNCC2)C1 [Compound 12c, 4-(4-Fluoro-3-(2,7-diazaspiro[3.5]nonane-2-carbonyl)benzyl)phthalazin-1(2H)-one] | > 100 µM | > 100 µM | –
O=C(c1cc(Cc2n[nH]c(=O)c3ccccc23)ccc1F)N1CC2(CCN(C(=O)C3CC3)CC2)C1 [Compound 12d, 4-(3-(7-(Cyclopropanecarbonyl)-2,7-diazaspiro[3.5]nonane-2-carbonyl)-4-fluorobenzyl)phthalazin-1(2H)-one] | > 100 µM | – | –
O=C(c1cc(Cc2n[nH]c(=O)c3ccccc23)ccc1F)N1CCC12CCCCC2 [Compound 13a, 4-(4-Fluoro-3-(1-azaspiro[3.5]nonane-1-carbonyl)benzyl)phthalazin-1(2H)-one] | > 100 µM | – | –
CC(C)(C)OC(=O)N1CCC2(CC1)CCN2C(=O)c1cc(Cc2n[nH]c(=O)c3ccccc23)ccc1F [Compound 13b, Tert-butyl 1-(2-fluoro-5-((4-oxo-3,4-dihydrophthalazin-1-yl)methyl)benzoyl)-1,7-diazaspiro[3.5]nonane-7-carboxylate] | > 100 µM | – | –
O=C(c1cc(Cc2n[nH]c(=O)c3ccccc23)ccc1F)N1CCC12CCNCC2 [Compound 13c, 4-(4-Fluoro-3-(1,7-diazaspiro[3.5]nonane-1-carbonyl)benzyl)phthalazin-1(2H)-one] | > 100 µM | > 100 µM | –
O=C(C1CC1)N1CCC2(CC1)CCN2C(=O)c1cc(Cc2n[nH]c(=O)c3ccccc23)ccc1F [Compound 13d, 4-(3-(7-(Cyclopropanecarbonyl)-1,7-diazaspiro[3.5]nonane-1-carbonyl)-4-fluorobenzyl)phthalazin-1(2H)-one] | > 100 µM | – | –
O=C(c1cc(Cc2n[nH]c(=O)c3ccccc23)ccc1F)N1CCC2(CCCC2)C1 [Compound 15a, 4-(4-Fluoro-3-(2-azaspiro[4.4]nonane-2-carbonyl)benzyl)phthalazin-1(2H)-one] | > 100 µM | – | –
CC(C)(C)OC(=O)N1CCC2(CCN(C(=O)c3cc(Cc4n[nH]c(=O)c5ccccc45)ccc3F)C2)C1 (centres unmarked) [Compound 15b, Tert-butyl 7-(2-fluoro-5-((4-oxo-3,4-dihydrophthalazin-1-yl)methyl)benzoyl)-2,7-diazaspiro[4.4]nonane-2-carboxylate] | – | – | fold lower PARP-1 affinity compared to methylene congener (PARP-1): ~ 85 fold; inhibition of PARP activity (PAR synthesis), in words [2]: inhibit PARP activity in a manner similar to olaparib; DNA damage (γ-H2AX foci), in words [3]: induced DNA damage at micromolar concentrations; also recorded: induced DNA damage in a dose dependent manner
O=C(c1cc(Cc2n[nH]c(=O)c3ccccc23)ccc1F)N1CCC2(CCNC2)C1 (centres unmarked) [Compound 15c, 4-(4-Fluoro-3-(2,7-diazaspiro[4.4]nonane-2-carbonyl)benzyl)phthalazin-1(2H)-one] | > 100 µM | > 100 µM | –
O=C(c1cc(Cc2n[nH]c(=O)c3ccccc23)ccc1F)N1CCC2(CCN(C(=O)C3CC3)C2)C1 (centres unmarked) [Compound 15d, 4-(3-(7-(Cyclopropanecarbonyl)-2,7-dizaspiro[4.4]nonane-2-carbonyl)-4-fluorobenzyl)phthalazin-1(2H)-one] | > 100 µM | > 100 µM | –
O=C(c1cc(Cc2n[nH]c(=O)c3ccccc23)ccc1F)N1CCC2(CCNCC2)C1 [Compound 16c, 4-(4-Fluoro-3-(2,8-diazaspiro[4.5]decane-2-carbonyl)benzyl)phthalazin-1(2H)-one] | > 100 µM | > 100 µM | EC50 (MEF PARP-2 KO−/− cells): > 100 µM
O=C(c1cc(Cc2n[nH]c(=O)c3ccccc23)ccc1F)N1CCC2(CCN(C(=O)C3CC3)CC2)C1 [Compound 16d, 4-(3-(8-(Cyclopropanecarbonyl)-2,8-diazaspiro[4.5]decane-2-carbonyl)-4-fluorobenzyl)phthalazin-1(2H)-one] | > 100 µM | – | –
O=C(c1cc(Cc2n[nH]c(=O)c3ccccc23)ccc1F)N1CCC2(CCCCC2)CC1 [Compound 17a, 4-(4-Fluoro-3-(3-azaspiro[5.5]undecane-3-carbonyl)benzyl)phthalazin-1(2H)-one] | > 100 µM | – | –
O=C(c1cc(Cc2n[nH]c(=O)c3ccccc23)ccc1F)N1CCC2(CCNCC2)CC1 [Compound 17c, 4-(4-Fluoro-3-(3,9-diazaspiro[5.5]undecane-3-carbonyl)benzyl)phthalazin-1(2H)-one] | > 100 µM | > 100 µM | –
O=C(c1cc(Cc2n[nH]c(=O)c3ccccc23)ccc1F)N1CCC2(CC1)CCN(C(=O)C1CC1)CC2 [Compound 17d, 4-(3-(9-(Cyclopropanecarbonyl)-3,9-diazaspiro[5.5]undecane-3-carbonyl)-4-fluorobenzyl)phthalazin-1(2H)-one] | – | – | cytotoxicity / anti-proliferative activity (in words) [1]: poor cytotoxic properties
O=C(c1cc(Cc2n[nH]c(=O)c3ccccc23)ccc1F)N1CCN(C(=O)C2CC2)CC1 [olaparib, reference compound] | – | – | DNA damage (γ-H2AX foci), in words [3]: induced DNA damage in a dose dependent manner
